Biological target: recombinant human GPR52 (Homo sapiens, UniProt Q9Y2T5)
Test: HTRF cAMP assay, GPR52 activity (Example A)
Format: cell-based
Details: for EC50: average EC50 (n=1 to 15), Flp-In-CHO cells stably expressing recombinant human GPR52, cAMP HTRF, read-out: EC50 (N=); for Emax: maximum cAMP at 10 μM or 31.6 μM test compound, as percentage of Emax of control compound 4-(3-(3-fluoro-5-(trifluoromethyl)benzyl)-5-methyl-4,5-dihydro-1H-1,2,4-triazol-1-yl)-2-methylbenzamide
Procedure, shortened: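 Flp-In CHO cells stably expressing human GPR52 (20,000/well) incubated 30 min at room temperature with compound, cAMP then quantified by competitive HTRF. EC50 from nonlinear fits of cAMP-transformed data normalized to positive control; Emax is top plateau at 10 or 31.6 μM, given as % of a reference agonist's Emax.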

Chain of recombinant human GPR52 (Q9Y2T5 whole entry): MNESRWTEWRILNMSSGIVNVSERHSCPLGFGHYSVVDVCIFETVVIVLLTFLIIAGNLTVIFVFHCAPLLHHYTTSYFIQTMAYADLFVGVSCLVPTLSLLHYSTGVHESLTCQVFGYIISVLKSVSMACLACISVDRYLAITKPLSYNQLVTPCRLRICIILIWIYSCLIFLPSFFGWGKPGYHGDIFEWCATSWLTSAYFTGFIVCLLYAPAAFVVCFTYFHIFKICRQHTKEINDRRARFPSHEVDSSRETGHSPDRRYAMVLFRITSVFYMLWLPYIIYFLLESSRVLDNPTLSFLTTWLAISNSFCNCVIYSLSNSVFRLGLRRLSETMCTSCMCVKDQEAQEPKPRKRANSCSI

Row | EC50 [nM] | Emax [%] | SMILES
1 | 101 to 1000 | 153 | Cc1cc(-c2cc(Oc3ccc4occc4c3)ccn2)ccc1C(N)=O [Example 83, 4-(4-(benzofuran-5-yloxy)pyridin-2-yl)-2-methylbenzamide]
2 | 101 to 1000 | 123 | Cc1cc(-c2cc(Oc3ccc4c(c3)CCC4=O)ccn2)ccc1C(N)=O [Example 84, 2-methyl-4-(4-((1-oxo-2,3-dihydro-1H-inden-5-yl)oxy)pyridin-2-yl)benzamide]
3 | 101 to 1000 | 106 | Cc1cc(-c2cc(Oc3ccc4c(c3)OCO4)ccn2)ccc1C(N)=O [Example 85, 4-(4-(benzo[d][1,3]dioxol-5-yloxy)pyridin-2-yl)-2-methylbenzamide]
4 | 101 to 1000 | 86 | Cc1nc2cc(Oc3ccnc(-c4ccc(C(N)=O)c(C)c4)c3)ccc2s1 [Example 86, 2-methyl-4-(4-((2-methylbenzo[d]thiazol-5-yl)oxy)pyridin-2-yl)benzamide]
5 | 101 to 1000 | 68 | Cc1cc(-c2cc(Oc3ccc4ccoc4c3)ccn2)ccc1C(N)=O [Example 87, 4-(4-(benzofuran-6-yloxy)pyridin-2-yl)-2-methylbenzamide]
6 | 101 to 1000 | 67 | Cc1cc(-c2cc(Oc3ccc4cccnc4c3)ccn2)ccc1C(N)=O [Example 88, 2-methyl-4-(4-(quinolin-7-yloxy)pyridin-2-yl)benzamide]
7 | 101 to 1000 | 95 | Cc1cc(-c2cc(Oc3ccc4c(c3)OC(F)(F)O4)ccn2)ccc1C(N)=O [Example 89, 4-(4-((2,2-difluorobenzo[d][1,3]dioxol-5-yl)oxy)pyridin-2-yl)-2-methylbenzamide]
8 | 1000 to 2000 | 107 | Cc1cc(-c2cc(Oc3cccc4occc34)ccn2)ccc1C(N)=O [Example 90, 4-(4-(benzofuran-4-yloxy)pyridin-2-yl)-2-methylbenzamide]
9 | 101 to 1000 | 118 | Cc1cc(-c2cc(Oc3ccc4cnccc4c3)ccn2)ccc1C(N)=O [Example 93, 4-(4-(isoquinolin-6-yloxy)pyridin-2-yl)-2-methylbenzamide]
10 | 101 to 1000 | 129 | Cc1cc(-c2cc(Oc3ccc4cnn(C)c4c3)cc(CN)n2)ccc1C(N)=O [Example 94, 4-(6-(aminomethyl)-4-((1-methyl-1H-indazol-6-yl)oxy)pyridin-2-yl)-2-methylbenzamide]
11 | 101 to 1000 | 138 | CCc1cc(-c2cc(Oc3ccc4ncc(F)cc4c3)ccn2)ccc1C(N)=O [Example 95, 2-ethyl-4-(4-((3-fluoroquinolin-6-yl)oxy)pyridin-2-yl)benzamide]
12 | 101 to 1000 | 120 | Cc1cc(-c2cc(Oc3ccc4ncc(F)cc4c3)ccn2)ccc1C(N)=O [Example 96, 4-(4-((3-fluoroquinolin-6-yl)oxy)pyridin-2-yl)-2-methylbenzamide]
13 | 101 to 1000 | 132 | CCc1cc(-c2cc(Oc3cc(F)c4ncccc4c3)ccn2)ccc1C(N)=O [Example 97, 2-ethyl-4-(4-((8-fluoroquinolin-6-yl)oxy)pyridin-2-yl)benzamide]
14 | 101 to 1000 | 120 | Cc1cc(-c2cc(Oc3cc(F)c4ncccc4c3)ccn2)ccc1C(N)=O [Example 98, 4-(4-((8-fluoroquinolin-6-yl)oxy)pyridin-2-yl)-2-methylbenzamide]
15 | 101 to 1000 | 138 | Cc1cc(-c2cc(Oc3ccc4ncc(Cl)cc4c3)ccn2)ccc1C(N)=O [Example 99, 4-(4-((3-chloroquinolin-6-yl)oxy)pyridin-2-yl)-2-methylbenzamide]
16 | 101 to 1000 | 112 | Cc1cc(-c2cc(Oc3cc(Cl)c4ncccc4c3)ccn2)ccc1C(N)=O [Example 100, 4-(4-((8-chloroquinolin-6-yl)oxy)pyridin-2-yl)-2-methylbenzamide]
17 | 101 to 1000 | 80 | CCc1cc(-c2cc(Oc3cnc4cc(F)ccc4c3)ccn2)ccc1C(N)=O [Example 101, 2-ethyl-4-(4-((7-fluoroquinolin-3-yl)oxy)pyridin-2-yl)benzamide]
18 | 101 to 1000 | 90 | CCc1cc(-c2cc(Oc3cnc4c(F)cccc4c3)ccn2)ccc1C(N)=O [Example 102, 2-ethyl-4-(4-((8-fluoroquinolin-3-yl)oxy)pyridin-2-yl)benzamide]
19 | 101 to 1000 | 60 | Cc1cc(-c2cc(Oc3cnc4c(F)cccc4c3)ccn2)ccc1C(N)=O [Example 103, 4-(4-((8-fluoroquinolin-3-yl)oxy)pyridin-2-yl)-2-methylbenzamide]
20 | 101 to 1000 | 110 | CCc1cc(-c2cc(Oc3cnc4ccc(F)cc4c3)ccn2)ccc1C(N)=O [Example 104, 2-ethyl-4-(4-((6-fluoroquinolin-3-yl)oxy)pyridin-2-yl)benzamide]

Row | EC50 [nM] | Emax [%] | SMILES
21 | 101 to 1000 | 51 | Cc1cc(-c2cc(Oc3cnc4ccc(F)cc4c3)ccn2)ccc1C(N)=O [Example 105, 4-(4-((6-fluoroquinolin-3-yl)oxy)pyridin-2-yl)-2-methylbenzamide]
22 | 101 to 1000 | 100 | CCc1cc(-c2cc(Oc3ccc4ncccc4c3F)ccn2)ccc1C(N)=O [Example 106, 2-ethyl-4-(4-((5-fluoroquinolin-6-yl)oxy)pyridin-2-yl)benzamide]
23 | 25 to 100 | 146 | CCc1cc(-c2cc(Oc3ccc4ncc(C)cc4c3)ccn2)ccc1C(N)=O [Example 107, 2-ethyl-4-(4-((3-methylquinolin-6-yl)oxy)pyridin-2-yl)benzamide]
24 | 101 to 1000 | 150 | Cc1cnc2ccc(Oc3ccnc(-c4ccc(C(N)=O)c(C)c4)c3)cc2c1 [Example 108, 2-methyl-4-(4-((3-methylquinolin-6-yl)oxy)pyridin-2-yl)benzamide]
25 | 101 to 1000 | 75 | CCc1cc(-c2cc(Oc3cnc4c(C(F)(F)F)cccc4c3)ccn2)ccc1C(N)=O [Example 109, 2-ethyl-4-(4-((8-(trifluoromethyl)quinolin-3-yl)oxy)pyridin-2-yl)benzamide]
26 | 101 to 1000 | 137 | CCc1cc(-c2cc(Oc3cnc4ccc(Cl)cc4c3)ccn2)ccc1C(N)=O [Example 110, 4-(4-((6-chloroquinolin-3-yl)oxy)pyridin-2-yl)-2-ethylbenzamide]
27 | 101 to 1000 | 88 | Cc1cc(-c2cc(Oc3cnc4ccc(Cl)cc4c3)ccn2)ccc1C(N)=O [Example 111, 4-(4-((6-chloroquinolin-3-yl)oxy)pyridin-2-yl)-2-methylbenzamide]
28 | 101 to 1000 | 100 | CCc1cc(-c2cc(Oc3cnc4c(Cl)cccc4c3)ccn2)ccc1C(N)=O [Example 112, 4-(4-((8-chloroquinolin-3-yl)oxy)pyridin-2-yl)-2-ethylbenzamide]
29 | 101 to 1000 | 95 | CCc1cc(-c2cc(Oc3cnc4cc(F)c(F)cc4c3)ccn2)ccc1C(N)=O [Example 113, 4-(4-((6,7-difluoroquinolin-3-yl)oxy)pyridin-2-yl)-2-ethylbenzamide]
30 | 25 to 100 | 50 | Cc1cc(-c2cc(Oc3cnc4cc(F)c(F)cc4c3)ccn2)ccc1C(N)=O [Example 114, 4-(4-((6,7-difluoroquinolin-3-yl)oxy)pyridin-2-yl)-2-methylbenzamide]
31 | 101 to 1000 | 100 | CCc1cc(-c2cc(Oc3cnc4c(F)c(F)ccc4c3)ccn2)ccc1C(N)=O [Example 115, 4-(4-((7,8-difluoroquinolin-3-yl)oxy)pyridin-2-yl)-2-ethylbenzamide]
32 | 25 to 100 | 62 | Cc1cc(-c2cc(Oc3cnc4c(F)c(F)ccc4c3)ccn2)ccc1C(N)=O [Example 116, 4-(4-((7,8-difluoroquinolin-3-yl)oxy)pyridin-2-yl)-2-methylbenzamide]
33 | 101 to 1000 | 115 | CCc1cc(-c2cc(Oc3cnc4c(F)cc(F)cc4c3)ccn2)ccc1C(N)=O [Example 117, 4-(4-((6,8-difluoroquinolin-3-yl)oxy)pyridin-2-yl)-2-ethylbenzamide]
34 | 101 to 1000 | 85 | Cc1cc(-c2cc(Oc3cnc4c(F)cc(F)cc4c3)ccn2)ccc1C(N)=O [Example 118, 4-(4-((6,8-difluoroquinolin-3-yl)oxy)pyridin-2-yl)-2-methylbenzamide]
35 | 101 to 1000 | 120 | Cc1cc(-c2cc(Oc3cc(F)c4ncc(F)cc4c3)ccn2)ccc1C(N)=O [Example 119, 4-(4-((3,8-difluoroquinolin-6-yl)oxy)pyridin-2-yl)-2-methylbenzamide]
36 | 101 to 1000 | 155 | CCc1cc(-c2cc(Oc3cc(F)c4ncc(F)cc4c3)ccn2)ccc1C(N)=O [Example 120, 4-(4-((3,8-difluoroquinolin-6-yl)oxy)pyridin-2-yl)-2-ethylbenzamide]
37 | 1000 to 2000 | 78 | Cc1cc(-c2cc(Oc3cnc4c(c3)C=C(F)CC4)ccn2)ccc1C(N)=O [Example 121, 4-(4-((6-fluoro-7,8-dihydroquinolin-3-yl)oxy)pyridin-2-yl)-2-methylbenzamide]
38 | 101 to 1000 | 121 | CCc1cc(-c2cc(Oc3cnc4c(c3)C=C(F)CC4)ccn2)ccc1C(N)=O [Example 122, 2-ethyl-4-(4-((6-fluoro-7,8-dihydroquinolin-3-yl)oxy)pyridin-2-yl)benzamide]
39 | 101 to 1000 | 88 | CCc1cc(-c2cc(Oc3cnc4c(c3)CCCO4)ccn2)ccc1C(N)=O [Example 123, 4-(4-((3,4-dihydro-2H-pyrano[2,3-b]pyridin-6-yl)oxy)pyridin-2-yl)-2-ethylbenzamide]
40 | 1000 to 2000 | 100 | Cc1cc(-c2cc(Oc3ccc4ncncc4c3)ccn2)ccc1C(N)=O [Example 124, 2-methyl-4-(4-(quinazolin-6-yloxy)pyridin-2-yl)benzamide]

Source: patent US20260167615A1, “COMPOUNDS AND COMPOSITIONS AS GPR52 MODULATORS” (Neurocrine Biosciences, Inc., priority 2022, published 2026)
